These are literature values, as cited in US6891077B2, “Fibrinogen bandages and arterial bleeding models and methods of making and using thereof” (priority 2001, dated 2005).

The structures appear in SMILES notation.

This series has as its system coagulation and clot formation. The following applies: incorporated in or on fibrinogen dressings or bandages.

As to `NCCCCCC(=O)O` [ε-amino caproic acid], the “Effect on coagulation and clot formation as compared to fibrinogen bandages alone” value was “decreased coagulation and clot formation”.
